Reference: patent US20240366784A1, “INJECTABLE HYDROGEL COMPOSITIONS AND METHODS OF USE THEREOF” (Drexel University, priority 2023, published 2024)

Tests used:
[1] = typically reported; cited from earlier work
RAW264.7 cells = assay: qPCR transcriptional analysis of zymosan-activated RAW264.7 macrophages; assay type: cell-based, murine; settings: zymosan 100 μg/mL, drug 1 μM, 24 hrs
Method: For secondary identification of M2-promoting drugs, transcriptional analysis using qPCR was performed. RAW264.7 cells were plated at 1×10^6 cells/well in 24 well plates. After 24 h, media was replaced, and IL-4 (10 ng/mL, PeproTech) or zymosan (100 μg/mL) were included to serve as internal controls for M2-like and M1-like phenotypes, respectively. Treatment groups were concurrently activated via zymosan and treated with 1 μM drug concentrations, n=3 per group. After 24 hrs, cells were lysed by freezing, RNA was extracted (RNEasy Mini Kit; Qiagen), and cDNA synthesis was performed (High-Capacity cDNA Reverse Transcription Kit; Fisher). Samples were subject to qPCR using Taqman Fast Advanced Master Mix and probes (Fisher) for analysis of hprt (Mm01545399_m1), nos2 (Mm00440502_m1), il12b (Mm01288989_m1), il6 (Mm00446190_m1), mrc1 (Mm00485148_m1), il10 (Mm01288386_m1), and arg1 (Mm00475988_m1). Data is expressed as a fold change in gene expression using the ΔΔCt method, relative to the hprt and zymosan-treated controls.

[2] = system: Bone marrow derived macrophages (BMDMs); assay: nanoString gene expression analysis in zymosan-activated bone marrow derived macrophages; assay type: cell-based, mouse; settings: zymosan 100 μg/mL, drug 1 μM, 24 hrs, 91-gene panel
Method: Cells were maintained under standard culture conditions (37° C., 5% CO2) in the indicated medium which was replenished every two days. The murine MF cell lines, RAW 264.7 (ATCC) and RAW-Blue™ (InvivoGen), were cultured in Dulbecco's Modified Eagle Medium (DMEM) supplemented with heat-inactivated fetal bovine serum (FBS), and 1% penicillin-streptomycin (Pen-Strep). RAW-Blue™ media was additionally supplemented by 100 μg/ml Normocin with the addition of 100 μg/ml of Zeocin every other passage to maintain selection pressure, as recommended by the manufacturer. Cells were passaged at 70% confluency. Primary MF were derived from murine and human tissues. Bone marrow derived macrophages (BMDMs) were isolated and derived according to standard protocols. Marrow was extracted from the surgically resected femur and tibia of male C57BL/6 mice, dissociated, and filtered using a 40 μm strainer. Red blood cells were lysed with ammonium chloride, and recovered cells were plated at 2×10^6 cells/well in 24 well plates and maintained in Iscove's Modification of DMEM (IMDM) supplemented with 10% heat-inactivated FBS, 1% Pen-Strep, and 10 ng/mL recombinant mouse macrophage colony-stimulating factor (M-CSF; PeproTech). Primary human monocytes were isolated from peripheral blood (New York Blood Center) from a single healthy human donor via density centrifugation as previously described in the literature. […]

| Compound | Keq of polyaromatic guests with CD [1] | change in il12b expression among six selected drugs (RAW264.7 cells) | change in mrc1 and il10 expression among six selected drugs (RAW264.7 cells) | expression of M1-like genes (nos2, il6, il12b) (RAW264.7 cells; qPCR) | expression of M2-like genes (mrc1, arg1, il10) (RAW264.7 cells; qPCR) | cluster analysis of macrophage phenotype [2] |
| --- | --- | --- | --- | --- | --- | --- |
| N[C@@H](Cc1c[nH]c2ccccc12)C(=O)O [tryptophan] | single micromolar |  |  |  |  |  |
| COc1ccc(C(=O)Nc2c(Cl)cncc2Cl)cc1OC1CCCC1 [piclamilast] |  | greatest decrease | greatest increase | significantly downregulated | upregulation | intermediate to M1 and M2 control phenotypes |
| COc1cccc2c1C(=O)c1c(O)c3c(c(O)c1C2=O)C[C@@](O)(C(=O)CO)C[C@@H]3O[C@H]1C[C@H](N)[C@H](O)[C@H](C)O1 [doxorubicin] | single micromolar |  |  |  |  |  |
